Source: US10675267B2, “Methods for detection and eradication of myeloid leukemia stem cells” (priority 2015, dated 2020)
Entries after “also recorded” stand apart in the source; their conditions may differ.

Assays:
[1] = test system: AML-08 human LSC engrafted in NSGS mice; test: De novo AML PRIMAGRAFT model AML-08: FACS engraftment analysis and serial transplantation; assay type: in vivo, mouse
Description: All animal studies were performed in accordance with UCSD and NIH-equivalent ethical guidelines and were approved by the Institutional Animal Care and Use Committee (IACUC protocol # S06015). For all in vivo experiments, animals of both genders were utilized. Three AML PRIMAGRAFT™ models were established by transplanting AML LSC-enriched cell fractions (either CD34-selected or FACS-purified stem or progenitor cell fractions from primary patient samples) into immunocompromised Rag2^−/−γc^−/−[20] or NOD/SCID-IL2RG mice (Jackson Laboratory) constitutively expressing human SCF, GM-CSF and IL-3 (NSGS) (FIGS. 8A-8D). […]
Mice transplanted with 1-2×10^5 CD34^+ AML LSC-enriched fractions or no-transplant controls were screened for human hematopoietic cell engraftment (CD45^+ cells) in peripheral blood by FACS starting at 7-10 weeks post transplant. At 7-28 weeks post-transplant (7-36 weeks old), mice were euthanized, and peripheral blood and single cell suspensions of hematopoietic organs were analyzed for human cell engraftment by FACS. […]
Flow cytometric analysis was performed on single cell suspensions from each hematopoietic tissue essentially as for primary patient samples, and frequencies of total live human CD45^+ cells, and CD45^+CD34^+CD38^− Lin^− (stem) and CD45^+CD34^+CD38^+ Lin^− (progenitor) cells were determined in each tissue. […]

[2] = test system: human CD34+ cells from treated mice (DNAJB1, MCL1, BCL2, BCLX, SF3B1 transcripts); test: qRT-PCR / RT-PCR of in vivo splicing alterations in CD34-selected human cells from treated AML PRIMAGRAFT mice
Description: For in vivo treatments, a 10 mg/mL stock solution of 17S-FD-895 solubilized in DMSO was used. After randomization, AML-engrafted mice were dosed intravenously with 17S-FD-895 (5-10 mg/kg) or vehicle (for AML-08, vehicle control=15% DMSO in PBS; for AML-37, vehicle control=20% DMSO in PBS) three times over a two-week period, with the first dose given on day 1, the second on day 7, and the third on day 14. For preparation of RNA from human LSC-enriched populations, single cell suspensions from spleen and bone marrow were CD34 double-selected (over two LS selection columns, Miltenyi) and 1-2×10^5 cells were collected in lysis buffer or pooled according to treatment group for serial transplantation assays.
For qRT-PCR analysis of relative total mRNA expression levels or splice isoform-specific expression analyses, cDNA was synthesized using 50 ng-1 […] of template RNA in 20 μL reaction volumes using the First-Strand SUPERSCRIPT™ III Reverse Transcriptase Supermix (Life Technologies) followed by incubation with RNase H according to the manufacturer's protocol and as described previously. All cDNA products were stored at −20° C. Splice isoform-specific primers for PTK2B-202 were designed to bind to unique exon junctions for this transcript, which lacks exon 24. All primers (Table 2) were diluted to 10 μM working dilutions in DNase/RNase-free water. qRT-PCR was performed in duplicate using cDNA (1 μL reverse transcription product per reaction) on an iCycler (Bio-Rad, Hercules, Calif.) using SYBR® GREENER™ Super Mix (Life Technologies) in 25-μL volume reactions containing 0.2 μM of each forward and reverse primer. Cycling conditions were as follows: 50° C. for 2 minutes, then 95° C. for 8 minutes and 30 seconds, followed by 40 cycles of 95° C. for 15 seconds and 60° C. for 60 seconds. Melting curve analysis was performed on each plate according to the manufacturer's instructions. For standard qRT-PCR, human HPRT mRNA transcript levels were used to normalize Ct values obtained for each gene, and relative expression levels were calculated using the 2^−ddCt method. To ensure validity of results, only Ct values <35 were used in gene expression analyses. All primer sets were tested in a no-template control (NTC) reaction containing only water instead of cDNA, and all gave Ct values >35 in NTC reactions.
The 17S-FD-895 dosing regimen was selected as the maximum number of doses possible for the treatment of three experimental groups with the amount of synthesized compound that was available, and is consistent with weekly IV dosing regimens used in clinical trials of spliceosome inhibitory compounds in patients with solid tumors. Animals were euthanized within two hours after delivery of the final dose of 17S-FD-895, and peripheral blood, spleens and bone marrows were collected for analysis of total human cell and stem and progenitor cell engraftment, and for RNA extraction for splice isoform-specific qRT-PCR.
For qRT-PCR analysis of relative total mRNA expression levels or splice isoform-specific expression analyses, cDNA was synthesized using 50 ng-1 […] reaction volumes using the First-Strand SUPERSCRIPT™ III Reverse Transcriptase Supermix (Life Technologies) followed by incubation with RNase H according to the manufacturer's protocol and as described previously (Abrahamsson et al., 2009; Crews et al., 2015). All cDNA products were stored at −20° C. Splice isoform-specific primers for PTK2B-202 were designed to bind to unique exon junctions for this transcript, which lacks exon 24. All primers (Supplemental Experimental Procedures Table) were diluted to 10 ∝M working dilutions in DNase/RNase-free water. qRT-PCR was performed in duplicate using cDNA (1 ∝Λ reverse transcription product per reaction) on an iCycler (Bio-Rad, Hercules, Calif.) using SYBR® GREENER™ Super Mix (Life Technologies) in 25-∝A volume reactions containing 0.2 ∝M of each forward and reverse primer. […]

[3] = CD34+ cells of individual treated mice versus vehicle
[4] = pooled CD34+ cells used for serial transplantation

CC[C@H](OC)[C@@H](C)[C@H]1O[C@@H]1[C@@H](O)[C@H](C)/C=C/C=C(\C)[C@H]1OC(=O)C[C@H](O)CC[C@@](C)(O)[C@@H](OC(C)=O)/C=C/[C@@H]1C (stereo in doubt) [Formula 17S-FD-895, 17S-FD-895]
circulating leukemic cells in secondary recipients ([1]; de novo AML model, lower dose): trend towards decreased circulating leukemic cells | decrease in circulating leukemic burden in secondary recipients ([1]; model with high disease burden, serial transplantation, p=0.07): 49% | BCL2L1-L/S expression ratio ([2]; CD34+ cells of individual treated mice versus control): significant reduction | BCL2-L/S expression ratio [2, 3]: significant reduction | MCL1-L/S expression ratio [2, 3]: significant reduction | SF3B1 mRNA expression ([2]; after treatment, individual mice and pooled samples): unchanged | DNAJB1 intron 2 expression / retention ([2]; human CD34+ cells from treated mice versus vehicle): increased DNAJB1 intron 2 expression; also recorded: increased DNAJB1 intron 2 retention | MCL1-L/S expression ratios, pooled cells [2, 4]: dramatically reduced; also recorded: significantly reduced | MCL1 exon 1-3 splicing pattern (RT-PCR) [2, 4]: MCL1 exon skipping and intron inclusion
